These results are taken from patent US20170319480A1, “PHARMACEUTICAL FORMULATION” (Boehringer Ingelheim International GmbH, priority 2014, published 2017).

This series is described as follows: Bioavailability of afatinib in fed state. The format is in vivo. The following applies: adults. From the text:
As decreased bioavailability of afatinib has been observed in adults ad fed state, the oral solution is not intended to be administered with food or drinks.

With `CN(C)C/C=C/C(=O)Nc1cc2c(Nc3ccc(F)c(Cl)c3)ncnc2cc1O[C@H]1CCOC1` [afatinib, 4-[(3-chloro-4-fluorophenyl)amino]-6-{[4-(N,N-dimethylamino)-1-oxo-2-buten-1-yl]amino}-7-((S)-tetrahydrofuran-3-yloxy)-quinazoline], the “bioavailability in fed state” value is “decreased”.
